The values that follow come from PubChem BioAssay (NCI).

Values joined by “and” are separate entries in the source; they are usually repeats but may differ in a detail not shown here. Equal values may be shown once.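 Values below derive from 48-hour exposures of cells grown in 96-well plates, with endpoints linearly interpolated between the two concentrations bracketing the appropriate inhibition level. GI50 marks 50% less growth. TGI denotes the concentration required for complete inhibition of growth.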 Where a SMILES comes first, the peptide text is derived from it. [ ]: non-standard residue; d: D form. The star is where a group is joined. ξ: configuration not given here. ξNMeF = CNC(Cc1ccccc1)C(=O)O; NMeV = CN[C@H](C(=O)O)C(C)C; Boc = CC(C)(C)OC(=O)*; OBn = c1ccc(CO*)cc1

Some test systems named below: OVCAR-5 ovarian; SN12C renal; MDA-MB-435; SW-620 colon; MDA-MB-231 breast; MOLT-4 leukemia; PC-3 prostate; UO-31 renal; NCI/ADR-RES ovarian; SF-295 CNS; HCT-116 colon; NCI-H522 lung; U251 CNS; HT29 colon; SNB-19 CNS; HOP-92 NSCLC; EKVX NSCLC; MCF7 breast.
Holding throughout (assay): growth of human tumour cells (NCI), 48 h

Take `Cc1ccc(Sc2ccccc2C23OC(C)(C4C(=O)N(c5ccccc5)C(=O)C42)N(C)C3=O)cc1` (stereo not drawn): the TGI in the test with OVCAR-5 ovarian, in the test on SN12C renal, with MDA-MB-435, with SW-620 colon, in the test on MDA-MB-231 breast and with MOLT-4 leukemia was over 100 µM each time. In addition, the TGI with PC-3 prostate, with UO-31 renal, with NCI/ADR-RES ovarian, in the test with SF-295 CNS, in the test with HCT-116 colon and in the test with NCI-H522 lung was over 100 µM in each case. The TGI in the test on U251 CNS, in the test on HT29 colon, with SNB-19 CNS, in the test with HOP-92 NSCLC and in the test with EKVX NSCLC was over 100 µM in each case.

As to `O=C(O)CCC(NC(=O)c1ccc(Nc2cnc3cc(C(F)(F)F)ccc3n2)cc1)C(=O)O` (stereo not drawn), the TGI in the test with OVCAR-5 ovarian, in the test on SN12C renal, in the test with SW-620 colon, in the test on MOLT-4 leukemia, with UO-31 renal and with NCI/ADR-RES ovarian was over 100 µM throughout. The TGI in the test with SF-295 CNS, with HCT-116 colon, in the test on MCF7 breast, with NCI-H522 lung, with U251 CNS and with HT29 colon was over 100 µM each time. Also, the TGI in the test with SNB-19 CNS, in the test with HOP-92 NSCLC and in the test on EKVX NSCLC was over 100 µM throughout.

As to `O=C(OCc1ccccc1)C(Cc1ccc(OCc2ccccc2)cn1)NC(=O)C(F)(F)F` (stereo not drawn), the TGI in the test with OVCAR-5 ovarian, with SN12C renal, with MDA-MB-435, with SW-620 colon, in the test with MDA-MB-231 breast and in the test with MOLT-4 leukemia was over 100 µM in each case. The TGI in the test with PC-3 prostate, in the test with UO-31 renal, with NCI/ADR-RES ovarian, with SF-295 CNS, with HCT-116 colon and in the test on NCI-H522 lung was over 100 µM in each case. Besides, the TGI in the test with U251 CNS, in the test with HT29 colon, in the test on SNB-19 CNS, in the test with HOP-92 NSCLC and with EKVX NSCLC was over 100 µM in each case.

As to `C=CCCCCCCCCCP(=O)(c1ccccc1)c1ccc2c(c1)OCCOCCOCCOCCO2` (stereo not drawn), the TGI was determined as 31.2 µM with OVCAR-5 ovarian; 32.4 µM with SN12C renal; 29.9 µM with SW-620 colon; 24.9 µM in the test on MOLT-4 leukemia; 22.7 µM in the test on UO-31 renal; 28.5 µM with SF-295 CNS. Also, the TGI is 25.1 µM in the test on HCT-116 colon; 24.5 µM in the test on NCI-H522 lung; 29.3 µM with U251 CNS; 24.8 µM in the test on HT29 colon; 25.7 µM with SNB-19 CNS; over 100 µM with HOP-92 NSCLC. The TGI in the test with EKVX NSCLC was 34.2 µM.

Consider `CC[C@H](C)[C@@H]([C@@H](CC(=O)N1CCC[C@H]1[C@H](OC)[C@@H](C)C(=O)NCCc1ccccc1)OC)N(C)C(=O)C(NC(=O)[C@H](C(C)C)N(C)C)C(C)C` (stereo partly drawn), for which the GI50 with OVCAR-5 ovarian was 0.592 nM; in the test with SF-295 CNS, 0.281 nM. Also, the TGI in the test with OVCAR-5 ovarian is over 10 µM; in the test with SN12C renal, 0.00499 µM and 0.00515 µM; in the test with MDA-MB-435, 0.000192 µM; in the test with SW-620 colon, over 10 µM; in the test on MDA-MB-231 breast, 0.00271 µM; in the test with UO-31 renal it was over 10 µM. Also, the TGI is over 10 µM with NCI/ADR-RES ovarian; 0.0038 µM with HCT-116 colon; over 10 µM in the test on MCF7 breast; 0.000434 µM with NCI-H522 lung; 0.0068 µM with U251 CNS; 0.00163 µM with HT29 colon. Besides, the TGI in the test on EKVX NSCLC stood at 7.57 µM.

`CC(C)[C@@H](C(=O)N(C)[C@H](C(=O)N1CCC[C@H]1C(=O)OCc1ccccc1)C(C)C)N(C)C(=O)C(Cc1ccccc1)N(C)C(=O)[C@H](NC(=O)OC(C)(C)C)C(C)C` (stereo partly drawn) (Boc-[dV][ξNMeF][NMeV][NMeV]P-OBn): the TGI in the test on OVCAR-5 ovarian is over 31.6 µM; in the test with SN12C renal, over 100 µM; with SW-620 colon it was over 31.6 µM; with MOLT-4 leukemia it was over 31.6 µM; in the test with UO-31 renal it was over 31.6 µM; with SF-295 CNS, over 31.6 µM. Also, the TGI with HCT-116 colon was over 31.6 µM; in the test on NCI-H522 lung, over 100 µM; in the test with U251 CNS, over 31.6 µM; in the test with HT29 colon it was over 31.6 µM; with SNB-19 CNS, over 31.6 µM; with HOP-92 NSCLC, over 31.6 µM. Also, the TGI in the test on EKVX NSCLC is over 31.6 µM.

On to `O=C1c2ccccc2C(=O)N1CCCOCc1c[nH]c(=O)[nH]c1=O`, for which the TGI with OVCAR-5 ovarian, in the test on SN12C renal, in the test on SW-620 colon, in the test on MOLT-4 leukemia, in the test on UO-31 renal and with SF-295 CNS was over 100 µM in each case. The TGI in the test on HCT-116 colon, in the test on NCI-H522 lung, in the test with U251 CNS, in the test with HT29 colon, in the test with SNB-19 CNS and with HOP-92 NSCLC was over 100 µM throughout. This compound also registered a TGI with EKVX NSCLC of over 100 µM.

On to `CN(c1ccccc1)c1cc2ccccc2nn1`, for which the TGI with OVCAR-5 ovarian, in the test with SN12C renal, with SW-620 colon, in the test on MOLT-4 leukemia, with UO-31 renal and in the test on SF-295 CNS was over 100 µM in each case. In addition, the TGI with HCT-116 colon, with NCI-H522 lung, in the test with U251 CNS, in the test with HT29 colon, with SNB-19 CNS and with HOP-92 NSCLC was over 100 µM each time. In addition, in the test on EKVX NSCLC, the TGI is over 100 µM.

Consider `ICC1CCCO1` (stereo not drawn), for which the TGI with OVCAR-5 ovarian, in the test with SN12C renal, in the test with SW-620 colon, in the test with MOLT-4 leukemia, with SF-295 CNS and with HCT-116 colon was over 100 µM each time. The TGI with U251 CNS, with HT29 colon, with SNB-19 CNS, with HOP-92 NSCLC and in the test on EKVX NSCLC was over 100 µM each time.

As for `COc1cccc(NC(=O)CSc2nnc(Cc3ccccc3)o2)c1`, the TGI in the test with OVCAR-5 ovarian, with SN12C renal, in the test with SW-620 colon, in the test with MOLT-4 leukemia, in the test on UO-31 renal and with SF-295 CNS was over 100 µM in each case. The TGI with HCT-116 colon, with NCI-H522 lung, with U251 CNS, in the test with HT29 colon and in the test on SNB-19 CNS was over 100 µM in each case.
